Key:
elongin C = experiment: Immunoprecipitation with anti-elongin C, immunoblot anti-FITC; assay type: binding, rat; settings: FITC-conjugated peptides, Figure 3C, difference p < 0.001
Protocol: (§1) For neuronal differentiation, cells were dissociated into a single-cell suspension by use of a Pasteur pipette and re-suspended into a concentration of 50,000 cells/mL in DMEM/F12 without serum, neurotrophic factors or growth factors. Then, the cells were cultured on poly-L-lysine-coated dishes or cover glasses, and the synthesized peptides at concentrations from 1 to 5 μM were added to the culture medium and delivered into the cells. Three days or more later, the cells were used for morphological, immunocytochemical, immunohistochemical, electrophysiological and immunoprecipitation studies, as well as for Western blot analysis.
Cultured cells (1 × 10^6) were washed with ice-cold PBS and lysed in RIPA lysis buffer (Upstate, Charlottesville, VA, USA). The total protein was extracted from the cells, and the total protein concentration of each lysate was adjusted to 1 mg/mL. The lysates were immunoprecipitated with anti- elongin C antibody (Santa Cruz, San Diego, CA, USA) diluted at 1:500 by using μMACS Protein A Microbeads (Miltenyi Biotec, Bergisch Gladbach, Germany). The immunoprecipitates were analyzed by SDS/gradient polyacrylamide gel and Western blotting with anti-FITC antibody (Santa Cruz, San Diego, CA, USA) diluted 1:500. Immunolabeled bands were detected by using enhanced chemiluminescence reagents (Amersham Biosciences Corp., Piscataway, NJ, USA). Images were analyzed with LAS-1000 (Fujifilm), and the density of the bands was determined by using Image Gauge software (Fujifilm).

rat brain = experiment: Immunohistochemistry (NeuN) of transplanted peptide-treated cells in rat brain; assay type: in vivo, rat (Wistar); settings: 1 × 10^5 peptide-treated cells transplanted into rat brain, 6 weeks; mean ± SEM; vs VHL(157–171): p < 0.01 for VHL(157–168), p < 0.005 for TAT
Protocol: To evaluate neuronal differentiation of transplanted cells in rat brains, immunohistochemical study was performed as described previously. Before grafting, cells were preincubated with red fluorescence PKH26PCL (Sigma, St. Louis, MO, USA). […] Rats were anesthetized with isoflurane before surgery, and 1 × 10^5 cells were transplanted into rat brain. The rats were perfused with periodate-lysine-paraformaldehyde solution 6 weeks after the transplantation. Their brains were subsequently dissected and postfixed in the same medium for 2 h, cryopreserved in 30% sucrose for 12 h, and then embedded in Tissue Tek OCT compound (Sakura, Tokyo, Japan). Cryostat coronal sections of 14-μm thickness were prepared for immunohistochemistry. For immunostaining, sections were incubated with primary antibody, anti-NeuN antibody, and then incubated in secondary antibody, FITC-conjugated anti-rabbit IgG. Counterstaining was done with DAPI. In immohistochemistry, observations were made with a confocal immunofluorescence microscope (FV300, Olympus, Tokyo, Japan).
Wistar rats (Clea, Tokyo, Japan) were used in all experiments and housed in a temperature controlled room on a 12-h day/night cycle with free access to food and water. All animal experimental procedures were approved by the Institutional Animal Use Committee of Yokohama City University (ID 153, 1 April 2015) and were in accordance with National Institutes of Health guidelines for care and use of laboratory animals.

[1] = system: skin-derived precursors (SKPs); experiment: Immunocytochemistry with anti-Neurofilament-H (NFH) antibody; assay type: cell-based, rat (neonate Wistar); settings: peptides at 1 to 5 μM
Protocol: (§2) Rodent skin-derived precursor cells (SKPs), which can differentiate to neurons, were used. SKPs were previously isolated from the back dermis of neonate Wistar rats by the authors. These cells were cultured in growth medium composed of DMEM/F12 (1:1; Gibco, Grand Island, NY, USA) containing 2% B27 supplement (Gibco), 20 ng/mL epidermal growth factor (EGF; Upstate Biotechnology, Lake Placid, NY, USA), and 40 ng/mL bFGF (PeproTech EC Ltd., Rocky Hill, NJ, USA) in a humidified incubator at 37 °C with 5% CO2. The floating clusters of cultured cells were centrifuged and dissociated into a single-cell suspension by use of a Pasteur pipette with a flame-polished tip. These single cells were then re-suspended into at a concentration of 50,000 cells/mL for passage or experiments.
as §1
Cultured cells were fixed with 4% paraformaldehyde in PBS (Phosphate buffered saline) for 10 min at room temperature. Cells were incubated for 1 h at room temperature with primary antibodies. Antibodies against anti-MAP2 antibody (Sigma-Aldrich, St. Louis, MO, USA), anti-Neurofilment-H (NFH) antibody (Sigma-Aldrich), anti-NeuN antibody (Merk Millipore, Billerica, MA, USA), anti-GFAP antibody (DAKO, Santa Clara, CA, USA), anti-tyrosine hydroxylase (TH) antibody (Merk Millipore, Billerica, MA, USA), anti-choline acetyl transferase (ChAT) antibody (Abbiotec, San Diego, CA, USA), anti-glutamic acid decaboxylase (GAD) antibody (Enzo Life Sciences, Flamingdale, NY, USA), and anti-rhodopsin antibody (Santa Cruz, San Diego, CA, USA) were used. […] Nuclear counterstaining was done with DAPI (Molecular Probes, Eugene, OR, USA) or TO-PRO-3 (Molecular Probes), and observations were made with a fluorescence microscope system (FV300, Olympus, Tokyo, Japan). We counted the number of immuno-positive cells with a given antibody in 4 to 6 random non-overlapping visual fields (50–200 cells per field) in each experiment. […] The degree of positivity was expressed as the rate of immuno-positive cells to the total number of nuclei stained with DAP1 or TO-PRO-3.

[2] = system: skin-derived precursors (SKPs); experiment: Whole-cell patch-clamp electrophysiology; assay type: cell-based, rat (neonate Wistar); settings: five days after peptide addition at 3 μM, holding potential −80 mV, steps of 20 mV from −100 to 100 mV, VHL(157–168) vs VHL(157–171) p < 0.01
Protocol: as §2, §1
To record fast sodium and delayed rectifier potassium currents, we prepared extracellular and intracellular solutions as described previously. […] For recordings and data analysis we used CEZ-2300 (Nihon Kohden, Tokyo, Japan) and pCLAMP 6.0 software (Axon Instruments, Burlingame, CA, USA). Linear components of leak and capacitive currents were reduced by analogue circuitry and then canceled by the P/N method. Signals were sampled every 20 μs, and currents were filtered at 5 kHz. Data were additionally processed with Origin 5.0 (Microcal, Northhampton, MA, USA).

[3] = system: skin-derived precursors (SKPs); experiment: Neurite outgrowth / morphological evaluation of neuronal differentiation; assay type: cell-based, rat (neonate Wistar)
Protocol: as §2, §1
Neurite outgrowth with length exceeding the diameter of the neuronal soma is often assessed as a morphological index of neuronal differentiation. After a single-cell suspension was made by pipetting, the cells were cultured in DMEN/F12 medium alone at 37 °C in a 5% CO2 incubator. Thereafter, neurite outgrowth was evaluated with the following 4 levels: +++, for above 50% of the cells showing neurite outgrowth; ++, for 20–50% with neurite outgrowth; +, for 5–19% having neurite outgrowth; and −, for below 5% of the cells with neurite outgrowth.

[4] = system: skin-derived precursors (SKPs); experiment: Western blot analysis of NFH protein; assay type: cell-based, rat (neonate Wistar); settings: peptides at 1 to 5 μM
Protocol: as §2, §1
(§3) Cultured cells were washed 3 times in cold PBS and then scraped into ice-cold PBS. After incubation on ice for 10 min, the cells were lysed with lysis buffer and centrifuged, after which the supernatants were collected. Each sample was separated by SDS-PAGE under reducing conditions and transferred electrophoretically to nitrocellulose filters. Non-specific binding of antibody was blocked by incubation with 5% donkey serum for 1 h. Western blots were probed with anti-MAP2 antibody, anti-NFH antibody, anti-ChAT antibody, anti-GAD antibody, anti-rhodopsin antibody, anti-TH antibody, and anti-elongin C antibody (Santa Cruz, San Diego, CA, USA) followed by horseradish peroxidase-conjugated secondary antibodies. Protein bands were detected by using a chemical luminescence detection system (ECL Plus Western Blotting Reagent Pack, Amersham, Hemel Hempstead, UK). Images were analyzed with LAS-1000 (Fujifilm, Tokyo, Japan), and the density of the bands was determined by using Image Gauge software (Fujifilm).

[5] = system: skin-derived precursors (SKPs); experiment: Immunocytochemistry of neuronal markers in NDD peptide-treated cells; assay type: cell-based, rat (neonate Wistar); settings: Figure 6B
Protocol: as §2, §1
Cultured cells were fixed with 4% paraformaldehyde in PBS (Phosphate buffered saline) for 10 min at room temperature. Cells were incubated for 1 h at room temperature with primary antibodies. Antibodies against anti-MAP2 antibody (Sigma-Aldrich, St. Louis, MO, USA), anti-Neurofilment-H (NFH) antibody (Sigma-Aldrich), anti-NeuN antibody (Merk Millipore, Billerica, MA, USA), anti-GFAP antibody (DAKO, Santa Clara, CA, USA), anti-tyrosine hydroxylase (TH) antibody (Merk Millipore, Billerica, MA, USA), anti-choline acetyl transferase (ChAT) antibody (Abbiotec, San Diego, CA, USA), anti-glutamic acid decaboxylase (GAD) antibody (Enzo Life Sciences, Flamingdale, NY, USA), and anti-rhodopsin antibody (Santa Cruz, San Diego, CA, USA) were used. After incubation with primary antibody, the cells were incubated for 1 h with secondary antibody, either rhodamine-conjugated anti-mouse IgG (Sigma-Aldrich) or FITC-conjugated anti-rabbit IgG (Sigma-Aldrich). Nuclear counterstaining was done with DAPI (Molecular Probes, Eugene, OR, USA) or TO-PRO-3 (Molecular Probes), and observations were made with a fluorescence microscope system (FV300, Olympus, Tokyo, Japan). We counted the number of immuno-positive cells with a given antibody in 4 to 6 random non-overlapping visual fields (50–200 cells per field) in each experiment. At least 2 experiments were performed per condition. The degree of positivity was expressed as the rate of immuno-positive cells to the total number of nuclei stained with DAP1 or TO-PRO-3.

[6] = system: skin-derived precursors (SKPs); experiment: Western blot analysis of neuronal markers in NDD peptide-treated cells; assay type: cell-based, rat (neonate Wistar); settings: Figure 6A; for Expression of ChAT: choline acetyltransferase; for Expression of TH: tyrosine hydroxylase
Protocol: as §2, §1, §3

elongin BC = target: T1, elongin BC (Homo sapiens, UniProt Q15369+Q15370); experiment: Isothermal titration calorimetry (ITC); assay type: binding
T1 construct: made in house; host or cells: E. coli BL21 (DE3), pCDFDuet-1
Protocol: In order to determine the crucial peptide sequence for elongin BC binding by isothemal titration caloritetry (ITC), recombinant proteins of elongin B and elongin C were prepared as follows. […] For purification, cell pellets were lysed by sonication in buffer A (20 mM Tris-HCl, pH 8.0, 0.5 M NaCl, 10 mM imidazole), and the soluble fraction was loaded onto Ni-NTA resin (Qiagen, Venlo, Netherlands) and eluted with buffer B (20 mM Tris-HCl (pH 8.0), 0.5 M NaCl, 250 mM imidazole). Eluted proteins were then loaded onto a Mono Q column followed by a Superdex 75 10/300 GL column (GE Healthcare, Chicago, IL, USA). For the ITC experiments, the elongin BC solution was exchanged with buffer C (20 mM HEPES-NaOH (pH 8.0), 150 mM NaCl) by using size-exclusion chromatography. Assays to assess the binding of peptides to elongin BC were performed by using a MicroCal iTC200 isothermal titration calorimeter (GE Healthcare, Chicago, IL, USA). […] The concentration of elongin BC was adjusted to a final one of 35 μM and injected into the sample cell (204 μL). One mM peptide was titrated into the protein solution as 40 consecutive 1.0-μL aliquots at 120-s intervals at 25 °C. The first injection volume was 0.4 μL, and the observed thermal peak was excluded from the data analyses. Duplicate experiments were performed independently. […] The KD values were calculated from duplicate thermograms.

[7] = Figure 2A, rates of cells having neurites, peptides at 1 to 5 μM, VHL157–168 vs VHL(157–171) p < 0.005
[8] = BC-box motif plus five C-terminal amino acids peptides, delivered with TAT PTD, 1 to 5 μM

T1 sequence (Q15369 17-112): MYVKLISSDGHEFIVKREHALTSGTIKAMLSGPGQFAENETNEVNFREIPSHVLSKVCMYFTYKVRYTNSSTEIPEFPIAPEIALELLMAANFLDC
T1 sequence (Q15370 whole entry partner): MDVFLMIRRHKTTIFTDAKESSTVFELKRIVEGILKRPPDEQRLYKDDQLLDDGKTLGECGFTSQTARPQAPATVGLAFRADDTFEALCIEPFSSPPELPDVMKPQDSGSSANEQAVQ

Sequence: YARAAARQARATLKERCLQVVRS [FITC-VHL(157–168), FITC-tagged VHL(157–168) peptide]
- Binding to elongin C (FITC band after anti-elongin C immunoprecipitation) (elongin C): a faint band for FITC
- Binding to elongin C (FITC band after anti-elongin C immunoprecipitation) (elongin C; listed as FITC-conjugated VHL(157–168)): significantly less did

Sequence: YARAAARQARATLKERCLQVVRSLVK [FITC-VHL(157–171), FITC-tagged VHL(157–171) peptide]
- Binding to elongin C (FITC band after anti-elongin C immunoprecipitation) (elongin C): A distinct band for FITC
- Binding to elongin C (FITC band after anti-elongin C immunoprecipitation) (elongin C; listed as FITC-conjugated VHL(157–171)): distinctly bound to elongin C

Sequence: YARAAARQARATLKERCLQVVRS [VHL(157–168), BC-box motif plus two amino acids, conjugated with PTD]
- Positive rates of NeuN (rat brain): 9.2 ± 1.8%
- Percentage of NFH-positive cells ([1]; immunocytochemistry, mean ± SEM, vs VHL(157–171): p < 0.01 for VHL(157–168), p < 0.005 for TAT): 10.1 ± 2.2%
- Voltage-gated outward K+ and inward Na+ currents [2]: both significantly smaller outward potassium and inward Na^+ currents
- Neurite Outgrowth Activity [3, 7]: significantly weaker neurite outgrowth activity than VHL(157–171)
- NFH protein amount / band ([4]; three days after treatment, Figure 3B, less than VHL(157–171): VHL(157–168) p < 0.01, TAT p < 0.001): a less distinct band for NFH

Sequence: YARAAARQARASLQHLCRFRIRQLVR [SOCS7 BC-box motif plus five amino acids]
- Rate of ChAT-positive (cholinergic neuron-like) cells [5]: high rates of positive cells
- Expression of ChAT [6]: high
- Expression of TH [6]: pronounced
- Neurite Outgrowth Activity [3, 8]: +++ (above 50% of the cells showing neurite outgrowth)

Sequence: TLKERCLQVVRS [VHL157–168, VHL peptide without TAT, for ITC, synthesized by CS Bio Co]
- ΔS (elongin BC; 25 °C, 20 mM HEPES-NaOH (pH 8.0), 150 mM NaCl, mean ± S.D. of two independent replicates): −8.54 ± 0.74 cal/mol/deg

Sequence: YARAAARQARASLKHLCRKALRSFLT [WSB2 BC-box motif plus five amino acids]
- Rate of GAD-positive (GABAnergic neuron-like) cells [5]: high rates of positive cells
- Rate of TH-positive (dopaminergic neuron-like) cells [5]: high rates of positive cells
- Expression of ChAT [6]: moderate
- Expression of GAD ([6]; glutamic acid decarboxylase): expressed highly
- Expression of TH [6]: moderate
- Neurite Outgrowth Activity [3, 8]: ++ (20–50% with neurite outgrowth)

Sequence: YARAAARQARATLQHLCRKTVNGHLD [SOCS3 BC-box motif plus five amino acids]
- Rate of GAD-positive (GABAnergic neuron-like) cells [5]: high rates of positive cells
- Expression of TH [6]: moderate
- Neurite Outgrowth Activity [3, 8]: ++ (20–50% with neurite outgrowth)

Sequence: YARAAARQARAVYTLKERCLQVVRSLVK [VHL(155–171), pVHL fragment conjugated with PTD]
- Rate of immunoreactivity for Neurofilament-H (NFH) ([1]; ten divided pVHL sequences compared, Figure 1C): greatest rate of immunoreactivity
- Morphological change ([3]; phase-contrast microscopy, Figure 1E, peptides at 1 to 5 μM): assumed a neuron-like morphology
- Rate of cells having neurites ([3]; ten divided pVHL sequences compared, Figure 1D, peptides at 1 to 5 μM, three days or more): greatest rate
- NFH protein expression ([4]; ten divided pVHL sequences compared, Figure 1B): greatest expression

Sequence: YARAAARQARAKERCLQVVRS [VHL(159–171), pVHL fragment conjugated with PTD]
- Elongin BC binding affinity (elongin BC; two residues deleted from the N-terminus, p < 0.0001): complete loss of elongin BC binding affinity
- Neurite Outgrowth Activity [3, 7]: scarcely did
